Experimental findings from patent US20060270643A1, “Hyfroxyflutamide induced pathways related to androgen receptor negative prostate cancer cells” (priority 2002, published 2006) are described below.

“And” between values parts separate entries of the source, which are not always exact repeats. Identical values can stand only once. “Also recorded” adds a separate entry of the source. Like-named read-outs stand apart in the source and are kept apart here.

In experiment [1] the test system is p44/42 MAP kinase (ERK1 and 2). Description: Immunoblot of phosphorylated p44/42 MAP kinase in DU145 cells. It is filed as cell-based, human. The procedure: 7. […] (A) DU145 cells were grown in 100 mm dishes and serum-starved for 24 hours. The cells were lysed on ice. Equal amounts of cell lysate were analyzed by 12% SDS-PAGE and subsequent immunoblotted with anti-phospho ERK1/2 and anti-ERK1/2 antibodies. (B) Different cell lines, at 70 to 80% confluence, were lysed and immunoblotted with anti-AR polyclonal antibody, NH27. (C) DU145 cells were pre-incubated with MEK1/2 inhibitor U0126, or U0124 before HF, EGF, and ethanol treatment. Cells were lysed and immunoblotted with anti-phospho ERK1/2 and anti-ERK1/2 antibodies. (D) CWR2 and (E) PC3-AR cells were grown in 100 mm dishes and serum-starved for 24 hours. The cells were treated with HF, EGF or ethanol vehicle for 15 mins and immunoblotted with anti-phospho-ERK1/2 and anti-ERK1/2 antibodies. […] MMTV-ARE-Luc reporter plasmid was cotransfected with or without pSG5AR into DU145 cells. After 18 hours, cells were treated with 1 nM DHT, 1 μM HF or both for another 18 hours, and then harvested. Cell lysates were collected and assayed for the luciferase activity.
9. […] After 15 min treatment, cells were lysed and immunoblotted with anti-phospho ERK1/2 and antiERK1/2 antibodies. […] EGFR was immunoprecipitated from the cell lysates, and their phosphotyrosine level was determined by anti-phosphotyrosine antibody. All the results were visualized using enhanced chemiluminescence.
198. This assay uses a polyclonal antibody specific against the activated p44/42 MAP kinases (Cell Signaling Technology, Beverly, Mass.), which detects p44 and p42 MAP kinase (ERK1 and 2) only when catalytically activated by dual phosphorylation at Thr202 and Tyr204. DU145 cells were seeded at 1×10^5 cells per 100 mm plate and allowed to attach overnight and then the media were replaced with serum-free DMEM media for 24 hours. The cells were pre-treated with MAP kinase inhibitors, EGFR antibodies, or cycloheximide for 1 hour and followed by HF, EGF, or vehicle treatment. Cells were washed twice with PBS, harvested at indicated times, and lyzed with RIPA buffer for 30 min on ice. The protein concentrations were determined by Bradford assay, and equal amount of protein was resolved by SDS-PAGE. Gels were transferred, immunoblotted with p44/42 MAP kinase antibody (1/1000), and then incubated with secondary antibody. Proteins were visualized by the enhanced chemiluminescence system (NEN™ Life Science Products, Boston, Mass.). P44/42 MAP kinase (total ERK1/2) was blotted as a control.
(In general: In western blotting, separated proteins are transferred to a membrane and probed.)

In experiment [2] the test system is AR. Description: AR phosphorylation in LNCaP cells (immunoprecipitation / Western blot). It is filed as cell-based, human. The procedure: (§1) 14. […] Anti-pSer, anti-phosphoserine antibody. […] Total AR protein was blotted using an anti-AR antibody (AR), and AR phosphorylation was detected using an anti-phospho-AR (S210) antibody (pAR). […] The cells were then harvested for immunoprecipitation with anti-AR antibody and Western blot analysis. NH27, anti-AR antibody, anti-pSer, anti-phosphoserine antibody.
(§2) 219. The imrnunoprecipitation and Western blotting were performed as previously described (Lin, H. K., et al. (2001) Proc Natl Acad Sci USA 98, 7200-7205). The cell extracts (1 mg) were immunoprecipitated with the indicated antibody. The immunocomplexes were subjected to 8% SDS-PAGE and immunoblotted with the indicated antibody.

The subject of experiment [3] is AR. Description: AR phosphorylation in COS-1 cells transfected with wtAR or mtAR. In kind it is cell-based. The procedure:
as §1, §2

The test system of a further experiment is phospho-ERK1/2. Description: Immunocytochemical staining of phospho-ERK1/2 in patients' prostate tumor biopsies. It is filed as in vivo, human. As to conditions: recurrent tumors of four patients progressing while receiving flutamide (androgen ablation therapy); one value per patient. On the procedure:
6. […] Prostate tumor tissue sections from the same patient with either the pre- (A and C) and post-androgen ablation plus flutamide therapy (B and D), were immunohistochemically stained for phosphorylated ERK1/2. Sections were counterstained with Mayer Hematoxylin Blue (A and B). Original magnification ×400.
196. Immunocytochemical staining were performed on formalin-fixed, paraffin-embedded tissue sections using antibodies ERK1,and ERK2 (SC-94, and SC-154, 1/400 dilution), and phospho-ERK1/2 (SC-7383, 1/50 dilution) all from Santa Cruz (Santa Cruz, Calif.). Sections were cut at 4 to 5 microns and deparaffinized according to established procedures and quenched with 3% hydrogen peroxide for 6 min. Antigen unmasking with heat retrieval in citrate buffer/pH 6.0 was accomplished by placing slides in a microwave (1500 watts) pressure cooker for 30 minutes. Slides were rinsed and stained for 45 minutes with primary antibody, and then incubated for 20 min with secondary antibody and streptavidin-HRP. Slides were developed with AEC+, rinsed and counterstained with Mayer Hematoxylin Blue in 0.3% ammonia water.
201. […] Each slide was examined and scored the number of the cells stained positive for phosph-ERK1/2 under the 100× high power field. […]

Experiment [4] relates to association between Ras and Raf. Put plainly: Ras-Raf immunoprecipitation assay in DU145 cells. It is filed as cell-based, human. Particulars: lysates of treated DU145 cells; 1 μM HF, 10 ng/ml EGF, 1 μM 9-cis retinoic acid. On the procedure:
8. […] (A) DU145 cells were treated with ethanol (lane 1), 10 ng/ml EGF (lane 2), 1 μM 9-cis retinoic acid (lane 3), and 1 μM HF (lane 4) after 24 hour serum starvation. Cells were lysed and 300 μg of total protein were immunoprecipitated with anti-Ras antibody, pulled-down by a protein A/G agarose beads, and detected with an anti-Raf antibody. (B) DU145 cells were transfected with pCDNA3.1 or pCDNA3.1-Ras N17 as indicated. After 24 hours serum starvation, the cells were treated with different ligands for 20 min, and then harvested. Western blots were performed with antibodies against phosphoERK1/2 and ERK1/2. The density of phospho-ERK1/2 shown as Optical Density (OD) were determined by the Versa Doc Imaging System (Bio-Rad) and quantified by Quantity One software.
200. Serum-stared and treated DU145 cells were lysed with RIPA buffer for 30 min on ice. Lysates were then centrifuiged at 12,000 g for 10 min at 4° C. and protein concentrations were determined by the Bradford assay. 500 μg of cell lysates were incubated for 4 hours with either anti-Ras or anti-EGFR antibody (1/100, Santa Cruz Biotechnology) to the protein-antibody mixture and then added in 20 μl of protein A/G plus-agarose (Santa Cruz Biotechnology) for another 4 hours incubation with constant rotation. The immunoprecipitates were washed four times with cold PBS, resolved by SDS-PAGE, and immunoblotted by anti-Raf-1 antibody, or anti-phospho-tyrosine monoclonal antibody (Oncogene Research, Calbiochem, La Jolla, Calif.). The results were visualized by chemiluminescence.

For experiment [5], the system named is cyclin D1 promoter (−1745D1-Luc). Description: Cyclin D1 promoter luciferase reporter assay in DU145 cells. In kind it is cell-based, human. As to conditions: 10^−6 M HF or 30 ng/ml EGF. On the procedure: (§3) 11. […] (A) DU145 cells were treated with HF (1 μM), or EGF (10 ng/ml), or ethanol vehicle for 12 hours after the serum starvation. Cells were lysed and blotted with anti-cyclin D1 antibody. (B) DU145 cells were serum starved for 24 hours and then co-transfected DN Ras or DN Raf together with […] Luc reporter with SuperFect (Qiagen). After 4 hours, the medium was changed to normal medium (10% serum) for 18 hours and then changed to serum starvation condition for another 24 hours and then treated with HF, EGF, or ethanol vehicle control. Cells were lysed for luciferase activity analysis.
197. DU145 cells were obtained from American Type Culture Collection and cultured in Dubecco's modified Eagles's medium (DMEM) supplemented with 10% fetal bovine serum (FBS). Cells (1×10^5) were seeded in 35 mm plates and transfected with the SuperFect transfection reagent (Qiagen, Chatworth, Calif.). After 4 hours the media were changed to serum-free DMEM media for 24 hours. Thereafter, the cells were treated with HF, EGF, and vehicle for 18 hours and then lysed for luciferase assay. Luciferase activity was normalized for taansfection efficiency using pRL-TK as an internal control. Luciferase assays were performed using dual-luciferase reporter system (Promega, Madison, Wis.).

Another experiment concerns DU145 cells. Description: Cell proliferation assay (hemacytometer counting). In kind it is cell-based, human. The procedure: 10. […] (A) DU145 cells were seeded in 10% FBS DMEM medium and 24 hours later cells were changed to serum free medium. 48 hours later changed the medium to 0.5% FBS medium and treated with ethanol, HF, or EGF. Every 24 hours, the cells were counted by hemacytometer. […]. […] (B) DU145 cells were seeded and transfected with anti-sense oligonucleotide of Ras (IRIS 2503: 5′-[…]-3′), Raf (IIUS: 5132:5′-[…]-3′) and HIV (5′-[…]-3′) (Chen, G., Oh, S., Monia B. P., and Stacey, D. W., J. Biol. Chem., 271: 28259-28265, 1996, Monia, B. P., et al., Proc. Natl. Acad. Sci. USA, 93: 15481-15484, 1996.) by SuperFect (Qiagen). 24 hour after serum starvation, we changed the cells to medium containing 0.5% FBS, and treated the cells as described in A. Cells were counted by hemacytometer every 24 hours. The cell lysate were blotted with anti-H-Ras and Raf antibodies and β-actin was blotted for loading control.
199. DU145 cells were seeded at 2×10^4/ml on 35 mm plates and allowed to attach overnight. Cells were kept in serum-free DMEM medium for 24 hours, and then media were replaced with DMEM-0.5% FBS and treated as indicated. Cells were trypsinized and counted with a hemacytometer at different times after treatments. For the antisense oligonuleotide experiments, cells were incubated with a fixed ratio of oligonucleotide versus SuperFect (2.5 μl of SuperFect per 100 nM oligo) for 4 hours and then the oligo-containing medium was replaced with DMEM-0.5% FBS. Cells were trypsinized and counted by hemacytometer at indicated times.

The next experiment concerns cyclin D1. Description: Western blot of cyclin D1 and cell cycle related gene products in DU145 cells. It is filed as cell-based, human. On the procedure: as §3

With `N#CC(=C(/N)Sc1ccccc1N)/C(C#N)=C(\N)Sc1ccccc1N` [U0126], the “block of HF-mediated MAP kinase activation” value in experiment [1] was “can block HF-mediated MAP kinase activation”.

For the compound IGF-1: insulin-like growth factor-1, the AR phosphorylation entry in the experiment on AR [2] (LNCaP cells (P38), IGF-1 for 4 hours) was “induced AR phosphorylation”. In addition, the “AR phosphorylation at S210” value in the experiment on AR [2] (LNCaP cells treated with IGF-1, site-specific anti-phosphoserine AR antibody) was “detected”. For the same compound, the “phosphorylation of mutant AR (mtAR) (S210A/S790A)” value with AR [3] (IGF-1) is given as “did not induce phosphorylation”. Also, the “wild-type (wtAR) phosphorylation” value in the experiment on AR [3] (IGF-1 for 4 hours) was “induced wild-type (wtAR) phosphorylation”.

`C[C@@H]1C[C@@H]([C@H](O)CC2CC(=O)NC(=O)C2)C(=O)[C@@H](C)C1` [cycloheximide]: the “block of MAP kinase activation mediated by HF or EGF” value in experiment [1] (Ten ng/ml cycloheximide, 1 hour pre-treatment) is recorded as “failed to block MAP kinase activation”. Moreover, in experiment [1] (no HF or EGF (lane 7)), the “MAP kinase activation with ethanol added to cycloheximide treatment” value is recorded as “slight increment”.

For `CC(C)C(=O)Nc1ccc([N+](=O)[O-])c(C(F)(F)F)c1` [Flutamide], in the experiment on phospho-ERK1/2, the “cells stained positive for phospho-ERK1/2” value is 30% and 41% and 52% and 45%.

For the compound `CC1=C(/C=C/C(C)=C\C=C\C(C)=C\C(=O)O)C(C)(C)CCC1` [9 cis-retinoic acid, 9-cis retinoic acid], the “Raf detected in the Ras immunocomplex” value in experiment [4] is listed as “not”.

For the compound EGF: epidermal growth factor, the “induction of cyclin D1 promoter (−1745D1-Luc) activity” value in experiment [5] is recorded as “about 2 fold”. Also, the results for the cell proliferation entry in the experiment with DU145 cells (cells maintained in 10% FBS medium (data not shown)) and in the experiment with DU145 cells (low serum (0.5% FBS) after serum starvation) were “no significant stimulation of cell proliferation” and “stimulate the DU 145 cell growth significant; also recorded: can promote cell proliferation”, respectively. In experiment [4], the “Raf detected in the Ras immunocomplex” value was “detected”. Moreover, the “cyclin D1 expression” value in the experiment with cyclin D1 (HF (1 μM) or EGF (10 ng/ml) for 12 hours after serum starvation) is “induced”. In addition, in the experiment with cyclin D1 (after HF- or EGF-treatment), the “other cell cycle related gene products (p27, p21, Ki67, PCNA)” value was “no significant change”.

Consider `CS/C(N)=C(C#N)/C(C#N)=C(\N)SC` [U0124], for which the “block of HF-mediated MAP kinase activation” value in experiment [1] (DU145 cells pre-incubated with inhibitor before HF treatment) is reported as “not”.

For the compound `COc1cc2ncnc(Nc3cccc(Cl)c3)c2cc1OC` [AG1478], in experiment [1] (preincubation with 100 nM for 1 hour), the “levels of phospho-ERK1/2 induced by either HF or EGF” value is reported as “decreased levels of phospho-ERK1/2”.
